Read-outs that look alike come from different tables or passages of the source.
Columns and labels:
5-lipoxygenase = target: T1, 5-lipoxygenase (Rattus norvegicus, UniProt P12527); assay: ARBL whole cell 5-lipoxygenase assay (LTB4 formation in RBL-1 cells, A23187-stimulated); assay type: cell-based; details: RBL-1 whole cells; for IC50: inhibition of LTB4 formation
T1 construct: host or cells: RBL-1
T1 sequence (P12527 1-673): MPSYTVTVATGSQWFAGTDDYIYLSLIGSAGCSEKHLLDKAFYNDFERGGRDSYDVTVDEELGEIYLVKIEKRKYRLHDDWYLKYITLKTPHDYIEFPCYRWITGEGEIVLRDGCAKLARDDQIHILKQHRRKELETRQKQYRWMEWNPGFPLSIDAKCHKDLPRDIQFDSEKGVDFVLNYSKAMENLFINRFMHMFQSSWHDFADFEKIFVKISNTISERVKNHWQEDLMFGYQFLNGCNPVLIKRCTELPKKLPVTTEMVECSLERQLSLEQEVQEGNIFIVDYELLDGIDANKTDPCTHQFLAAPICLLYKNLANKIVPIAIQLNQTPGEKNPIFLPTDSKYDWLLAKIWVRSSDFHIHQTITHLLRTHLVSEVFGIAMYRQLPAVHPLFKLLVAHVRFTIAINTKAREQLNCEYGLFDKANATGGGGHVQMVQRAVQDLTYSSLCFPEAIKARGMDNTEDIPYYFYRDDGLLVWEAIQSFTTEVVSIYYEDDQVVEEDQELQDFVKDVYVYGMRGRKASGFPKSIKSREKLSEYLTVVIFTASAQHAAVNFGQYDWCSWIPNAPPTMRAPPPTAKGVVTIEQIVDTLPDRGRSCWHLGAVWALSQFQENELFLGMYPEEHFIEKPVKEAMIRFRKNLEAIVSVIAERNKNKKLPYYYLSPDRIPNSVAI
Procedure: (§1) ARBL/ARBC Whole cell 5-lipoxygenase and Cyclooxygenase Aasays
(§2) The rat basophilic leukemia cell line (RBL-1) was obtained from the American Type Culture Collection (Rockville, Md.).
(§3) Radioimmunoassay (RIA) kits of LTB4 and PGF2α were obtained from Amersham (Arlington Heights, Ill.) and Seragen (Boston, Mass.), respectively.
(§4) RBL-1 cells are grown in suspension culture in Eagle's minimum essential medium supplemented with 12% fetal bovine serum at 37° C. in an incubator supplied with air-5% carbon dioxide. Cells are harvested by centrifugation. They are washed with cold phosphate buffered saline pH 7.4 (PBS; NaCl, 7.1 g; Na2 HPO4, 1.15 g; KH2 PO4, 0.2 g; and KCl, 0.2 g/L). Cells are finally suspended in PBS containing 1.0 mM calcium at a density of 2×10^6 cells/mL. Cells are incubated with and without test agent (in DMSO) (1% DMSO is without effect on arachidonic acid metabolism) for 10 minutes at room temperature. Calcium ionophore A23187 (5 μM) is added and cells are incubated for 7 minutes at 37° C. The reaction is stopped by chilling the tubes on ice for 10 minutes. Cells are separated by centrifugation and the supernatant is stored at -20° C. Aliquots (100 μL) are analyzed for LTB4 and PGF2α using radioimmunoassay kits as provided by the supplier.
(§5) Table 1 contains biochemical data obtained from this whole cell assay as IC5 s which are calculated as the amount of test compound causing 50% inhibition of LTB4 or PGF2α formation and the results of the CFE-2 assay.

Cyclooxygenase = target: T2, Cyclooxygenase (Rattus norvegicus, UniProt Q63921); assay: ARBC whole cell cyclooxygenase assay (PGF2α formation in RBL-1 cells, A23187-stimulated); assay type: cell-based; details: RBL-1 whole cells; for IC50: inhibition of PGF2α formation; for inhibition at 10 µM: read-out: ARBC % inhibition of PGF2α at 10 μM (class symbol)
T2 construct: host or cells: RBL-1
T2 sequence (Q63921 27-602): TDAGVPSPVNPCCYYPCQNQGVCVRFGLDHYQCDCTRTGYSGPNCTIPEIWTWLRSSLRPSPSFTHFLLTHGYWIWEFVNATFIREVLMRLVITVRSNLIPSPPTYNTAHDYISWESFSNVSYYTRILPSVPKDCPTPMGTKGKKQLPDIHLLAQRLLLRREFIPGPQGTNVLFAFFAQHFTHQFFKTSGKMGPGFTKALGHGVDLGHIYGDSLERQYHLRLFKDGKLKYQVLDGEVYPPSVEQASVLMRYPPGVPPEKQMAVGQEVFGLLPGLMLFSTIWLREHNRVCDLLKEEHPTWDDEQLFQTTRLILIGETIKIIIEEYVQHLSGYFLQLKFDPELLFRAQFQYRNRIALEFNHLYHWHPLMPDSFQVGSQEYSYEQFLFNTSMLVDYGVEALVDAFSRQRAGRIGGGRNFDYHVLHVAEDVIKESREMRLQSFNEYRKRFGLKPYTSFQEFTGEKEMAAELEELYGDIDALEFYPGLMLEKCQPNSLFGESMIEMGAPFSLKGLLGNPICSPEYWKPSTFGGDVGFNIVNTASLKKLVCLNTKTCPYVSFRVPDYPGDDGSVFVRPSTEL
Procedure: as §1, §2, §3, §4, §5

[1] = Carrageenan-Induced Rat Foot Paw Edema-2 (CFE-2) Assay; assay type: in vivo; details: dosed 1 hour before carrageenan, edema measured 5 hours after carrageenan
Procedure: Carrageenan-Induced Rat Foot Paw Edema-2 (CFE-2) Assay:Protocol
Carrageenan solution (1% w/v) is prepared by dissolving 100 mg carrageenan (Marine Colloidal Div., Springfield, N.J.) in 10 mL of sterile saline (0.9%) solution (Travenol). The solution is vortexed for 30 to 45 minutes. Animals are dosed with compound 1 hour before carrageenan challenge. Foot paw edema is induced by injecting 0.10 mL of the 1% carrageenan subcutaneously into the plantar portion of the right hind paw of each rat under light anesthesia. Initial foot paw volume is measured immediately following carrageenan challenge using mercury plethysmography (Buxco Electronics). Edema is measured 5 hours after carrageenan. The difference between the 5-hour and the initial paw volume is expressed as delta edema. The delta edema for each test group of animals is used to calculate the percent inhibition of edema achieved by the compound at the test dose compared with the vehicle control group. The ID40 (the dose at which swelling is inhibited by 40%) is calculated by probit analysis for the dose at which 40% inhibition occurs.
as §5

Structure (SMILES) | IC50 (5-lipoxygenase) [µM] | IC50 (Cyclooxygenase) [µM] | CFE Percent inhibition at 30 mg/kg [1] [%] | inhibition at 10 µM (5-lipoxygenase; read-out: ARBL % inhibition of LTB4 at 10 μM (class symbol)) [%] | inhibition at 10 µM (Cyclooxygenase) [%] | inhibition at 10 µM (5-lipoxygenase; read-out: ARBL % inhibition of LTB4 at 10 μM) [%]
Cc1ccc(Cl)c(Nc2ccccc2-c2noc(=O)[nH]2)c1Cl [Example 1, 3-[2-[(2,6-dichloro-3-methylphenyl)amino]phenyl]-1,2,4-oxadiazol-5(4H)-one] | 2.3 | 0.013 | 58 |  |  | 
Cc1ccc(S(=O)(=O)c2nc(-c3ccccc3Nc3c(Cl)ccc(C)c3Cl)ns2)cc1 [Example 2, 2,6-Dichloro-3-methyl-N-[2-[5-[(4-methylphenyl)-sulfonyl]-1,2,4-thiadiazol-3-yl]phenyl]benzenamine] |  |  |  | < 40 | < 40 | 
Cc1ccc(Cl)c(Nc2ccccc2-c2nsc(N=C(N)N)n2)c1Cl [Example 3, 3-[2-[(2,6-dichloro-3-methylphenyl)amino]phenyl]-1,2,4-thiadiazol-5-yl-guanidine] |  |  |  |  | < 40 | 100
Cc1ccc(Cl)c(Nc2ccccc2-c2nsc(NC#N)n2)c1Cl [Example 4, 3-[2-[(2,6-Dichloro-3-methylphenyl)amino]phenyl]-1,2,4-thiadiazol-5-yl-cyanamide] | 6.15 | 1.23 |  |  |  | 
